Among the data in PubChem BioAssay AID1205 (EPA DSSTox, 2008) are outcome values, retold here.

Structures are written as SMILES. The source made the active and inactive calls.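 Rule for the calls: active = tumour findings in long-term animal cancer tests in more than one sex, species or organ; inactive = no tumour finding and more than one negative test.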

The series can be described thus: DSSTox (CPDBAS) Carcinogenic Potency Database Summary MultiCellCall Results. The settings on record: animal carcinogenicity bioassays, multi-cell call summary. In short, it runs like this:
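Summary call drawn from chronic long-term cancer bioassays in rats, mice, hamsters, dogs and nonhuman primates, using the most positive result per sex-species. Score: multispecies=50, multisex=30, multisite=20, summed for combinations.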
Consider `Nc1c(Cl)c(Cl)nc(C(=O)O)c1Cl`, for which the outcome is “inactive; multisex inactive; multispecies inactive”.

Consider `CN(C)[C@@H]1C(=O)C(C(N)=O)=C(O)[C@@]2(O)C(=O)C3=C(O)c4c(O)cccc4[C@@](C)(O)[C@H]3C[C@@H]12`, for which the outcome is “inactive; multisex inactive; multispecies inactive”. In the case of `CCN(CC)C(=O)c1cccc(C)c1` it was “inactive; multisex inactive; multispecies inactive”; in that of `FC(F)(F)C(Cl)Cl`, “active; multisite active; multisex active”; in that of `Cc1ccc(C)c(N)c1`, “active; multisite active; multisex active; multispecies active”. In the case of `CC(O)CN(C)c1ccc(NN)nn1` (stereo not given) it was “inactive; multisex inactive”; in that of `O=C1C(Cl)=C(Cl)C(=O)c2ccccc21`, “inactive; multisex inactive”. In the case of `O=[N+]([O-])c1ccc(Cl)cc1` it was “active; multisite active; multisex active”; in that of `COc1ccc(C)cc1N`, “active; multisite active; multisex active; multispecies active”. `NC(N)=O`: the outcome is “inactive; multisex inactive; multispecies inactive”. In the case of `CCN(CC)C(=S)S` it was “inactive; multisex inactive; multispecies inactive”; in that of `ClCCl`, “active; multisite active; multisex active; multispecies active”.

On to `C/C=C/c1ccc(OC)cc1`, for which the outcome was “inactive; multisex inactive”. In the case of `Clc1ccc(Sc2cc(Cl)c(Cl)cc2Cl)cc1` it was “inactive; multisex inactive”.

Consider `[O-][Cl+]O`, for which the outcome is “inactive; multisex inactive; multispecies inactive”. In the case of `CCCCNNCCCC` it was “active; multisite active; multisex active”. In the case of `FC(F)(F)CCl` it was “active; multisite active; multisex active”. In the case of `ClC(Cl)=C(c1ccc(Cl)cc1)c1ccc(Cl)cc1` it was “active; multisex active; multispecies active”; in that of `CCCCN(CCCC)N=O`, “active; multisite active; multispecies active”; in that of `O=NN1CCCC1c1cccnc1` (stereo not given), “active; multisite active; multisex active; multispecies active”.

For the molecule `NC(=O)CCCCC(N)=O`, the outcome was “inactive; multisex inactive; multispecies inactive”. As for `O=C(O)Cc1cccc2ccccc12`, the outcome was “inactive; multisex inactive”.

Take `NC(=O)N/N=C/c1ccc([N+](=O)[O-])o1`: the outcome was “active; multisite active; multispecies active”. In the case of `O=C(O)c1cc(N=Nc2ccc(S(=O)(=O)Nc3ccccn3)cc2)ccc1O` it was “active; multisite active; multisex active; multispecies active”; in that of `Cn1c(=O)c2c(ncn2C)n(C)c1=O`, “inactive; multisex inactive; multispecies inactive”. With `CCCc1ccc2c(c1)OCO2`, the outcome was “active; multisite active; multisex active; multispecies active”. Turning to `C=CN1CCCC1=O`, the outcome was “active; multisite active; multisex active”. In the case of `OCl` it was “inactive; multisex inactive; multispecies inactive”; in that of `CC(C)C=O`, “inactive; multisex inactive; multispecies inactive”; in that of `NC(=O)c1ccccc1C(N)=O`, “inactive; multisex inactive; multispecies inactive”.

On to `CC(C)=CCC/C(C)=C/C=O`, for which the outcome is “inactive; multisex inactive; multispecies inactive”. In the case of `ClC(Cl)Cl` it was “active; multisite active; multisex active; multispecies active”; in that of `Cn1cc(C(=O)[C@@H]2CCc3nc[nH]c3C2)c2ccccc21`, “inactive; multisex inactive; multispecies inactive”. In the case of `O=NN1CCC(=O)NC1=O` it was “active; multisex active”; in that of `C[C@]12C=CC(=O)C=C1CC[C@@H]1[C@@H]2C(=O)C[C@@]2(C)[C@H]1CC[C@]2(O)C(=O)CO`, “inactive; multisex inactive”.

For `O=c1cc[nH]c(=O)[nH]1`, the outcome is “active; multisex active; multispecies active”. In the case of `CCC(=O)C(CC(C)N(C)C)(c1ccccc1)c1ccccc1` (stereo not given) it was “inactive; multisex inactive; multispecies inactive”. In the case of `COc1c2occc2cc2ccc(=O)oc12` it was “active; multisite active”; in that of `O=CNNC=O`, “active; multisex active”. In the case of `O=NN1CCCC1` it was “active; multisite active; multisex active; multispecies active”; in that of `CC#N`, “inactive; multisex inactive; multispecies inactive”.

Consider `CCCc1cc(=O)[nH]c(=S)[nH]1`, for which the outcome was “active; multisite active; multisex active; multispecies active”. In the case of `Clc1cccc(-c2ccc(Cl)c(Cl)c2Cl)c1Cl` it was “active; multisite active; multisex active; multispecies active”; in that of `C/C=C/C=C/C=O`, “active; multisex active; multispecies active”; in that of `Nc1ccc([N+](=O)[O-])cc1`, “inactive; multisex inactive; multispecies inactive”. In the case of `IC(I)I` it was “inactive; multisex inactive; multispecies inactive”; in that of `CC(=O)[O][Hg][c]1ccccc1`, “inactive; multisex inactive”. In the case of `O=[N+]([O-])c1cc([N+](=O)[O-])c(Cl)c(Cl)c1Cl` it was “inactive; multisex inactive”; in that of `Cc1cc(=O)n(-c2ccccc2)n1C`, “active; multisite active”; in that of `OCC1CO1` (stereo not given), “active; multisite active; multisex active; multispecies active”. Take `C1CNCCN1`: the outcome was “inactive; multisex inactive”. In the case of `CC(=O)CN(CC(C)=O)N=O` it was “active; multisite active; multisex active”. In the case of `S=c1nc[nH]c2nc[nH]c12` it was “inactive; multisex inactive”; in that of `O=[N+]([O-])c1ccc2ncccc2c1`, “inactive; multisex inactive”. In the case of `CN1C(=O)CN=C(c2ccccc2)c2cc(Cl)ccc21` it was “inactive; multisex inactive; multispecies inactive”. Take `Cc1ccc(S(=O)(=O)NC(=O)NN2CCCCCC2)cc1`: the outcome is “inactive; multisex inactive; multispecies inactive”. In the case of `Clc1ccccc1Cl` it was “inactive; multisex inactive; multispecies inactive”; in that of `CCOC(=O)C(C)(C)Oc1ccc(Cl)cc1`, “active; multisite active”; in that of `CC(C)NCC(O)COc1cccc2ccccc12` (stereo not given), “inactive; multisex inactive; multispecies inactive”. In the case of `C[C@H]1CCCC(=O)CCC/C=C/c2cc(O)cc(O)c2C(=O)O1` it was “active; multisite active; multisex active”. Consider `C/C=C/C(=O)Oc1c(C(C)CCCCCC)cc([N+](=O)[O-])cc1[N+](=O)[O-]` (stereo not given), for which the outcome was “inactive; multisex inactive”. In the case of `O=C(O)CCC(=O)O` it was “inactive; multisex inactive”; in that of `Nc1cc([N+](=O)[O-])ccc1C(=O)O`, “inactive; multisex inactive; multispecies inactive”. In the case of `O=S(=O)(Oc1ccc(Cl)cc1)c1ccc(Cl)cc1` it was “inactive; multisex inactive”. On to `Clc1cc2c(cc1Cl)Oc1cc(Cl)c(Cl)cc1O2`, for which the outcome was “active; multisite active; multisex active; multispecies active”. In the case of `C/C(=C(\CCOC(=O)c1ccccc1)SC(=O)c1ccccc1)N(C=O)Cc1cnc(C)nc1N` it was “inactive; multisex inactive”; in that of `CC(C)(CO)CCCCCCC(C)(C)CO`, “inactive; multisex inactive”; in that of `c1ccc2sc(SNC3CCCCC3)nc2c1`, “inactive; multisex inactive”. On to `O=[N+]([O-])c1cccc2ccccc12`, for which the outcome was “inactive; multisex inactive; multispecies inactive”. Regarding `Nc1ccc(N)c2c1C(=O)c1c(N)ccc(N)c1C2=O`, the outcome was “active; multisex active”. In the case of `O=[N+]([O-])c1cc([As](=O)(O)O)ccc1O` it was “inactive; multisex inactive; multispecies inactive”; in that of `COc1ccc(N)cc1N`, “active; multisite active; multisex active; multispecies active”; in that of `C=CC(=C)C`, “active; multisite active; multisex active; multispecies active”. In the case of `O=NN1CCCCC1c1cccnc1` (stereo not given) it was “active; multisex active”; in that of `CCOc1ccc2c(c1)C(C)=CC(C)(C)N2`, “inactive; multisex inactive”. In the case of `C=COC(C)=O` it was “active; multisite active; multisex active; multispecies active”. As to `ClC1(Cl)C2(Cl)C3(Cl)C4(Cl)C(Cl)(Cl)C5(Cl)C3(Cl)C1(Cl)C5(Cl)C24Cl` (stereo not given), the outcome is “active; multisite active; multisex active; multispecies active”.

As to `O=C1CCc2ccccc2O1`, the outcome is “active; multisite active; multisex active; multispecies active”.

Turning to `CC(=O)Nc1ccc(C(=O)CCl)cc1`, the outcome was “inactive; multisex inactive; multispecies inactive”. In the case of `CC1=CC(=C(c2ccc(N)cc2)c2ccc(N)cc2)C=CC1=N` it was “inactive; multisex inactive; multispecies inactive”; in that of `C=C(C)C(=O)Nc1ccc(Cl)c(Cl)c1`, “inactive; multisex inactive”; in that of `CCCCC(CC)COC(=O)CCCCC(=O)OCC(CC)CCCC` (stereo not given), “active; multisex active”. In the case of `Cc1cc(C)c(N)cc1C` it was “active; multisite active; multisex active; multispecies active”. In the case of `Cc1cccc2cccnc12` it was “inactive; multisex inactive”; in that of `O=C1c2ccccc2CN2C(=O)c3ccccc3CN12`, “active; multisite active; multisex active”. In the case of `NC(=S)Nc1ccccc1`, the outcome is “inactive; multisex inactive; multispecies inactive”. In the case of `O.O.O.O.O.O.O=S(=O)([O-])[O-].[Ni+2]` it was “inactive; multisex inactive; multispecies inactive”; in that of `CC(Cc1ccccc1)NN` (stereo not given), “inactive; multisex inactive”; in that of `CN(C)NC(=O)CCC(=O)O`, “active; multisite active; multisex active; multispecies active”.

With `CC(=O)Nc1ccc2c(c1)C(=O)c1ccccc1-2`, the outcome is “active; multisite active”.
